EP1222921B1, “Pharmaceutical compositions of tizoxanide and/or nitazoxanide” (Romark Laboratories, L.C., priority 1997, dated 1998)
Read-outs that look alike come from different tables or passages of the source.

Tests used:
MDBKF5D2 cell monolayers [1] = experiment: Toxicity testing assay (Example III), MTS/PMS; format: cell-based; conditions: cattle, 48 h
Procedure: 200µl of medium containing nitazoxanide solution at the pre-mentioned concentrations and the proper controls were introduced into two wells of a 96 well plate containing confluent MDBKFD2 cell monolayers and two wells without monolayers. […] The plate was returned to the incubator in the dark to develop for 2 hours. At 2 hours, 100 µl of each supernatant was transferred to a new microtiter plate and read in the ELISA reader at 490 nm. Results were recorded and analyzed. […] (OD medium - OD drug x 100)/(OD medium) [formula] […]

Cryptosporidium parvum = experiment: Experimentally infected suckling mice, oocyst shedding; format: in vivo
Procedure: The effect of nitazoxanide was tested against Cryptosporidium parvum in experimentally infected mice. Nitazoxanide was supplied by Romark Laboratories, L.C. in Tampa, Florida. The total human dose (1 g/day for 7 days i.e. 7 g) was modified for use for mice according to Paget and Barnes. The human dose was multiplied by 0.0026 for mice (weighing approximately 20 grams) to obtain he total amount of the drug needed for each host morning and evening for 7 consecutive days. […] The doses were administered by mouth using a plastic syringe equipped with around tip needle. Twenty (20) 2-day old suckling mice were infected by oral administration of 100,000 oocysts of Crytospordium parvum obtained from infected calves. Before being administered to mice, the oocysts were concentrated using a sugar solution according to the technique described by […]. Rectal swabs from each mouse were obtained and examined daily using the modified […] staining technique described by Graczyk et al. Oocysts shedding appeared in feces 2 days after the oral infection of the animals. On the third day following infection of the animals, 10 mice received 1.3 mg of nitazoxanide, morning and evening, for 7 consecutive days while the 10 remaining mice were kept as untreated controls. Rectal swabs were obtained daily for each of the 7 days of treatment and for each of the 7 days following the end of treatment. The oocysts were suspended in oil and counted per 100 fields under a microscope.

S. mansoni = conditions: posttreatment positive egg-counts; report by Abaza et al.; cited from earlier work
Solubility in DMSO = format: physicochemical; conditions: in 1 ml DMSO
Procedure: Nitazoxanide (NTZ), the compound of formula (II), is the generic name for 2-(acetolyloxy)-N-(5-nitro 2-thiazoly) benzamide, a compound first synthesized by Rossignol and Cavier in 1975. 2 mg of nitazoxanide can be dissolved in 1 ml DMSO. Nitazoxanide is easily absorbed orally.

mycobacteria = experiment: MTS colorimetric assay of mycobacteria growing in a liquid broth; format: cell-based
Procedure: Fig. 7 is a chart based upon the assay for nitazoxanide effectiveness against mycobacteria growing in a liquid broth. We used the MTS colorimetric assay which permits us to determine growth in 4 hours rather than 3 weeks as with the agar counting method.

MDBKF5D2 cell monolayers [2] = format: cell-based; conditions: cattle
Procedure: The drug was incubated on the monolayers at 37°C and 8% CO2. At 24 hours (trial 1) and 48 hours (trial 2), MTS (Owen's solution) the PMS were added to each well at concentrations of 333 µg/ml and 25 µM respectively. The plate was returned to the incubator in the dark to develop for two hours. At two hours, 100 µl of each supernatant was transferred to a new microtiter plate and read in the ELISA reader at 490nm. Results were recorded and analyzed. Percent toxicity was calculated by subtracting the mean optical density (OD) of the drug supernatants from the mean optical density (OD) of the medium control supernatants (no drug), dividing by the OD of the medium control and multiplying by 100. (OD medium - OD drug)/(OD medium)x 100 [formula]

C. parvum oocysts = experiment: Intact C. parvum oocyst assay (Example II), immunofluorescence; format: cell-based, Cryptosporidium parvum
Procedure: Nitazoxanide was dissolved in sterile dimethylsulfoxide (DMSO) and tested against intact C. parvum oocysts infected cell monolayers at concentrations of 100 µg/ml, 10 µg/ml/l µg/ml and 0.1 µg/ml. A second trail was performed which tested nitazoxanide at the additional concentrations of 20, 2, 0.2 and 0.02 µg/ml. These concentrations were achieved by serial dilutions with complete DMEM medium to yield a final DMSO concentration of 0.5%. The medium control also contacted 0.5% DMSO.
The experiment used a cell culture of MDBKF5D2 Cells grown in 7 mm chambers, and as Cryptosporidium parvum: GCH1 oocysts, 5 X 10^4 per well, and was conducted to compare paromomycin (positive control) against nitazoxanide (experimental drug). Materials included Immune Anti-Cryptosporidium parvum Sporozoite Rabbit Serum (0.1%) and Fluorescein-Conjugated Goat Anti-Rabbit Antibody (1%).
5 x 104 C. parvum oocysts per well were incubated in nitazoxanide (100, 20, 10, 2, 1, 0.2, 0.1 and 0.02 µg/ml) at 37°C (8% CO2) on confluent MDBKF5D2 cell monolayers. The level of infection in each well was determined and analyzed by an immunofluorescence assay at 24 to 48 hours. Percent Inhibition was calculated by subtracting the mean parasite count/10 field in the drug test wells from the mean parasite count/10 fields in the medium control (no drug), dividing by the medium control count, and then multiplying by 100. (Medium control count - Drug test count)/(Medium control count)x 100 [formula]

Structure (SMILES): CC(=O)Oc1ccccc1C(=O)Nc1ncc([N+](=O)[O-])s1 [Nitazoxanide, 2-(acetolyloxy)-N-(5-nitro 2-thiazoly) benzamide]
- %Tox - Percent toxicity to cells by the drug (MDBKF5D2 cell monolayers [1]; 0.01 µg/ml): 10.12%
- Tox/OD (MDBKF5D2 cell monolayers [1]; 0.01 µg/ml): 1.617
- %Tox - Percent toxicity to cells by the drug (MDBKF5D2 cell monolayers [1]; 0.1 µg/ml): ≤0%
- Tox/OD (MDBKF5D2 cell monolayers [1]; 0.1 µg/ml): 1.878
- %Tox - Percent toxicity to cells by the drug (MDBKF5D2 cell monolayers [1]; 1 µg/ml): 10.09%
- Tox/OD (MDBKF5D2 cell monolayers [1]; 1 µg/ml): 1.618
- %Tox - Percent toxicity to cells by the drug (MDBKF5D2 cell monolayers [1]; 10 µg/ml): 77.07%
- Tox/OD (MDBKF5D2 cell monolayers [1]; 10 µg/ml): .413
- oocyst shedding at the end of treatment (Cryptosporidium parvum; Day 7, 2.6 mg/day by mouth for 7 consecutive days, suckling mice): complete reduction of the oocyst shedding
- fecal examinations after the end of treatment (Cryptosporidium parvum; days 3 and 7 after the end of treatment): negative examinations
- treated mice with decreased oocysts shedding (Cryptosporidium parvum; end of the third day of treatment, 2.6 mg/day by mouth for 7 consecutive days, suckling mice): 6 of the 10
- efficacy in patients (S. mansoni): not effective
- amount that can be dissolved (Solubility in DMSO): 2 mg
- effect on continued growth (mycobacteria; 3 µg/ml dose added at the 72 hr after culture was initiated): stops growth for the next 24 hrs and then there is a slow growth afterwards for the next 2 days
- effect on continued growth (mycobacteria; 50 µg/ml dose added at the 72 hr after culture was initiated): completely bacteriostatic throughout the 144 hours of the culture
- Percent Toxicity (MDBKF5D2 cell monolayers [2]; 24 h, 0.1 µg/ml): 19.3%
- Percent Toxicity (MDBKF5D2 cell monolayers [2]; 24 h, 1 µg/ml): 8.3%
- Percent Toxicity (MDBKF5D2 cell monolayers [2]; 24 h, 10 µg/ml): 65.1%
- Percent Toxicity (MDBKF5D2 cell monolayers [2]; 24 h, 100 µg/ml): 88.1%
- Percent Toxicity (MDBKF5D2 cell monolayers [2]; 48 h, 0.02 µg/ml): 21.23%
- Percent Toxicity (MDBKF5D2 cell monolayers [2]; 48 h, 0.2 µg/ml): 16.56%
- Percent Toxicity (MDBKF5D2 cell monolayers [2]; 48 h, 2 µg/ml): 24.93%
- Percent Toxicity (MDBKF5D2 cell monolayers [2]; 48 h, 20 µg/ml): 92.87%
- inhibition at 0.1 µg/mL (C. parvum oocysts; Cryptosporidium parvum, Trial 1: 24 hrs, 0.1µg/ml, read-out: Percent Inhibition): 51.8%
- inhibition at 1 µg/mL (C. parvum oocysts; Cryptosporidium parvum, Trial 1: 24 hrs, 1µg/ml, read-out: Percent Inhibition): 77.2%
- inhibition at 10 µg/mL (C. parvum oocysts; Cryptosporidium parvum, Trial 1: 24 hrs, 10µg/ml, read-out: Percent Inhibition): 94.4%
- inhibition at 0.02 µg/mL (C. parvum oocysts; Cryptosporidium parvum, Trial 2: 48 hrs, 0.02µg/ml, read-out: Percent Inhibition): 53.3%
- inhibition at 0.2 µg/mL (C. parvum oocysts; Cryptosporidium parvum, Trial 2: 48 hrs, 0.2µg/ml, read-out: Percent Inhibition): 54.3%
- inhibition at 2 µg/mL (C. parvum oocysts; Cryptosporidium parvum, Trial 2: 48 hrs, 2µg/ml, read-out: Percent Inhibition): 94.9%
- inhibition at 20 µg/mL (C. parvum oocysts; Cryptosporidium parvum, Trial 2: 48 hrs, 20µg/ml, read-out: Percent Inhibition): 96.9%
- Mean (+ SD) Parasite Count/10 Fields (C. parvum oocysts; Trial 1: 24 hrs, 0.1µg/ml): 474.5(±29.5)
- Mean (+ SD) Parasite Count/10 Fields (C. parvum oocysts; Trial 1: 24 hrs, 1µg/ml): 224.5(±28.5)
- Mean (+ SD) Parasite Count/10 Fields (C. parvum oocysts; Trial 1: 24 hrs, 10µg/ml): 55.5(±13.5)
- Mean (+ SD) Parasite Count/10 Fields (C. parvum oocysts; Trial 2: 48 hrs, 0.02µg/ml): 1041(+191.46)
- Mean (+ SD) Parasite Count/10 Fields (C. parvum oocysts; Trial 2: 48 hrs, 0.2µg/ml): 1020(+158.48)
- Mean (+ SD) Parasite Count/10 Fields (C. parvum oocysts; Trial 2: 48 hrs, 2µg/ml): 113.75(+21.36)
- Mean (+ SD) Parasite Count/10 Fields (C. parvum oocysts; Trial 2: 48 hrs, 20µg/ml): 68.75(+13.77)
